The results in this text go back to the supplement of paper PMC5412046.

The test system of assay [1] is SB.mhdgc-1. Kind of assay: viability at highest tested concentration (MAXR) relative to DMSO; higher = less cytotoxic. The note with it: SB.mhdgc-1 (hereditary c.1380delA CDH1 gastric cancer). Summed up: (§1)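 Gastric cancer cells derived from hereditary or sporadic patients were treated for 48 h with compound at 11 threefold dilutions, with the top concentration recorded per compound. Viability was then read by CellTiter-Glo luminescence. Data are viability normalised to DMSO, at the highest concentration or as trapezoidal area under the curve.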

Assay [2] deals with SB.msgc-1. Described as above. The note with it: SB.msgc-1 (sporadic gastric cancer). Summed up: as §1
The test system of assay [3] is SB.mhdgc-1. Briefly: area under the dose-response curve of % viability (trapezoidal, 11 doses) (% viability x log10 concentration); higher = less cytotoxic. The note with it: SB.mhdgc-1 (hereditary c.1380delA CDH1 gastric cancer). Put shortly:
as §1

Assay [4] deals with SB.msgc-1. Described as above. The settings on record: SB.msgc-1 (sporadic gastric cancer). Put shortly: as §1

Each structure is given as a SMILES string. Where a name gives a salt, the structure may show the parent alone.

Regarding `O=C(NCC[S+](=O)([O-])c1ccc(C(F)(F)F)cn1)c1ccc(Cl)cc1` [GSK-3787] (top concentration 46.0829 µM), the viability in assay [1] amounted to 75%; in assay [2], 86.7%. For the same compound, the entries for the “area under the dose-response curve” value in assay [3] and in assay [4] were 516 and 510, respectively.
The like results for `CCN1CCC(n2cc(CNc3cc(Cl)c4ncc(C#N)c(Nc5ccc(F)c(Cl)c5)c4c3)nn2)CC1` [Wyeth Cot inhibitor-2] (top concentration 46.0829 µM) were, in that order, 1.55%, 29.5%, 389 and 476.
For `CNc1nccc(-c2cccnc2Oc2cc(C(=O)Nc3cccc(C(F)(F)F)c3)ccc2C)n1` [AMG-Tie2-1] (top concentration 46.0829 µM), in that order: 28.4%, 37.3%, 505 and 494.
For `CC(C)c1noc(N2CCC(COc3ccc(-c4ccc([S+](C)(=O)[O-])cc4)nc3)CC2)n1` (top concentration 46.0829 µM), in that order: 80.1%, 72.3%, 621 and 537.
In the case of `CNC1CCCN(c2c(F)cc3c(=O)c(C(=O)O)cn(C4CC4)c3c2OC)C1` (configuration not stated) [Balofloxacin] (top concentration 46.0829 µM), the viability in assay [1] stood at 85.9%; in assay [2] it was 51.7%. Moreover, the “area under the dose-response curve” value in assay [3] stood at 518; in assay [4] it was 525.
For `CNC[C@H](O)c1ccc(O)c(O)c1` [Epinephrine] (top concentration 92.1659 µM), in that order: 20.7%, 78.5%, 484 and 514.
For `CNCC[C@H](Oc1cccc2ccccc12)c1cccs1` [Duloxetine hydrochloride] (top concentration 46.0829 µM), in that order: 6.33%, 21.1%, 416 and 435.
The like results for `O=C/1\C=C(/OC(=C1)/C2=C3SC4=C(SC3=CC=C2)C=CC=C4)N5CCOCC5` [KU-0064] (top concentration 46.0829 µM) were, in that order, 49.9%, 61.6%, 471 and 500.
Consider `CN(C)CCc1c[nH]c2ccc(C[S+](=O)([O-])N3CCCC3)cc12` [Almotriptan] (top concentration 46.0829 µM), for which the viability in assay [1] worked out at 79.1%; in assay [2], 90.3%. In addition, the “area under the dose-response curve” value in assay [3] is 518; in assay [4], 560.
For `CN(C)c1ccc(Nc2nc(N)n(C(=O)c3c(F)cccc3F)n2)cc1` (top concentration 46.0829 µM), in that order: 49.4%, 56.1%, 520 and 495.
The like results for `COc1ccc2cc1Oc1ccc(cc1)C[C@H]1c3cc(c(OC)cc3CCN1C)Oc1c(OC)c(OC)cc3c1[C@H](C2)N(C)CC3` [Tetrandrine] (top concentration 46.0829 µM) were, in that order, 57.7%, 48.5%, 538 and 507.
For `CN(C)[C@H]\1[C@@H]2C[C@H]3C(=C(O)\[C@]2(O)C(=O)\C(=C1O)C(N)=O)/C(=O)C4=C(O)C=CC=C4[C@@]3(C)O` [Tetracycline hydrochloride] (top concentration 46.0829 µM), in that order: 88.8%, 81.7%, 531 and 566.
For the compound `CC[C@H]1OC(=O)[C@H](C)C(=O)[C@H](C)[C@@H](O[C@H]2O[C@H](C)C[C@H](N(C)C)[C@H]2O)[C@](C)(OC)C[C@@H](C)C(=O)[C@H](C)[C@H]2N(CCCCn3cnc(-c4cccnc4)c3)C(=O)O[C@]12C` [Telithromycin] (top concentration 46.0829 µM), the results for the viability in assay [1] and in assay [2] were 82.1% and 50.3%, respectively. The “area under the dose-response curve” value in assay [3] was 503; in assay [4] it was 528.
The like results for `CO[C@@H]1[C@H](N(C)C(=O)c2ccccc2)C[C@H]2O[C@]1(C)n1c3ccccc3c3c4c(c5c6ccccc6n2c5c31)C(=O)NC4` [Midostaurin] (top concentration 46.0829 µM) were, in that order, 33.4%, 56.2%, 389 and 490.
For `c1cc(CN2CCCNCCNCCCNCC2)ccc1CN1CCCNCCNCCCNCC1` [Plerixafor hydrochloride] (top concentration 46.0829 µM), in that order: 109%, 81.5%, 579 and 450.
The like results for `Oc1cc(-c2nc(-c3ccccc3)[nH]c2-c2ccncc2)ccc1Cl` (top concentration 46.0829 µM) were, in that order, 19%, 70.2%, 384 and 488.
Regarding `CN[C@H](CC(C)C)C(=O)N[C@H]1C(=O)N[C@@H](CC(N)=O)C(=O)N[C@H]2C(=O)N[C@H]3C(=O)N[C@H](C(=O)N[C@H](C(=O)O)c4cc(O)cc(O)c4-c4cc3ccc4O)[C@H](O)c3ccc(c(Cl)c3)Oc3cc2cc(c3O[C@@H]2O[C@H](CO)[C@@H](O)[C@H](O)[C@H]2O[C@H]2C[C@](C)(N)[C@H](O)[C@H](C)O2)Oc2ccc(cc2Cl)[C@H]1O` [Vancomycin hydrochloride] (top concentration 46.0829 µM), the figures for the viability in assay [1] and in assay [2] were 73.2% and 99.9%, respectively. Further, the “area under the dose-response curve” value in assay [3] came out at 503; in assay [4] it was 521.
The like results for `CCCCCNC(=O)N1CCC(CN(Cc2ccc(Cl)cc2)Cc2ccc([N+](=O)[O-])s2)C1` (configuration not stated) [SR9011] (top concentration 46.0829 µM) were, in that order, 16.7%, 39%, 518 and 486.
The like results for `C/C(=C\C(=O)Nc1ccccc1C(=O)O)c1ccc2ccccc2c1` [BIBR 1532] (top concentration 46.0829 µM) were, in that order, 44.8%, 56.2%, 495 and 513.
For `CN[C@@H]1CN(C[C@H]1OC)C2=NC3=C(C=C2)C(=O)C(=C\N3C4=NC=CS4)/C(O)=O` [Vosaroxin] (top concentration 23.0415 µM), in that order: 23.6%, 46%, 445 and 471.
As to `CCn1c(-c2nonc2N)nc2c(C#CC(C)(C)O)ncc(OC[C@H]3CCCNC3)c21` (top concentration 46.0829 µM), the viability in assay [1] was 20%; in assay [2], 58.6%. The “area under the dose-response curve” value worked out at 351 in assay [3] and 430 in assay [4].
The like results for `CC/1=C(/N2[C@H](SC1)[C@H](NC(=O)C(N)C3=CC=CC=C3)C2=O)C(O)=O` (some centres not stated) [Cephalexin] (top concentration 46.0829 µM) were, in that order, 65%, 117%, 543 and 528.
As to `COc1cc(N[S+](=O)([O-])c2ccc(N)cc2)nc(OC)n1` [Sulphadimethoxine] (top concentration 46.0829 µM), the figures for the viability in assay [1] and in assay [2] were 100% and 111%, respectively. Besides, the results for the “area under the dose-response curve” value in assay [3] and in assay [4] were 490 and 585, respectively.
Consider `COC1=C(OCCCN2CCOCC2)C=CC\3=C1/N=C(/NC(=O)C4=CN=C(N)N=C4)N5CC/N=C35` [BAY-80-6946] (top concentration 23.0415 µM), for which the viability in assay [1] was 32%; in assay [2], 49.5%. Besides, the “area under the dose-response curve” value was determined as 353 in assay [3] and 398 in assay [4].
The like results for `Cc1cc(C(=O)N2CCN(c3cccc(Cl)c3)CC2)n(-c2ccccc2)n1` [XRP-44X] (top concentration 46.0829 µM) were, in that order, 46.5%, 35.7%, 452 and 471.
As to `COc1ccc(C(=O)N2CCCC2=O)cc1` [Aniracetam] (top concentration 46.0829 µM), the viability in assay [1] was 35.3%; in assay [2] it was 61.1%. Further, the “area under the dose-response curve” value in assay [3] turned out to be 477; in assay [4], 543.
The like results for `C=C[C@H]1CN2CCC1C[C@@H]2[C@@H](O)c1ccnc2ccccc12` (some centres not stated) [Cinchonine dihydrochloride] (top concentration 46.0829 µM) were, in that order, 32.1%, 8.49%, 528 and 266.
The like results for `CN(C)c1ccc(C(=O)NCCCCCCC(=O)NO)cc1` [M344] (top concentration 46.0829 µM) were, in that order, 2.75%, 2.11%, 363 and 309.
The like results for `N[S+](=O)([O-])c1cccc2c1C(=O)c1cccc(O)c1C2=O` [LLL-12] (top concentration 46.0829 µM) were, in that order, 3.33%, 2.09%, 240 and 274.
Turning to `CC(=O)NCC(=O)N1[C@@H]2CC[C@H]1c1ccc(Nc3ncc(C(F)(F)F)c(NC4CCC4)n3)cc12` (top concentration 46.0829 µM), the viability in assay [1] was 19.9%; in assay [2], 37.4%. Moreover, the “area under the dose-response curve” value in assay [3] was 402; in assay [4], 472.
For `CNC(=O)c1cc(Oc2ccc(NC(=O)Nc3ccc(Cl)c(C(F)(F)F)c3)cc2)ccn1` [Sorafenib] (top concentration 46.0829 µM), in that order: 9.42%, 26.6%, 494 and 444.
The like results for `CCN(CC)CC#CCOC(=O)C(O)(c1ccccc1)C1CCCCC1` (configuration not stated) [Oxybutynin chloride] (top concentration 46.0829 µM) were, in that order, 95.3%, 88.2%, 551 and 515.
Regarding `CN(C)CCc1ccc(O)cc1` [Hordenine] (top concentration 46.0829 µM), the viability was 87.9% in assay [1] and 88.4% in assay [2]. In addition, the “area under the dose-response curve” value was 433 in assay [3] and 527 in assay [4].

For orientation: viability means a read-out of living cells in per cent, often relative to untreated cells.
